Measurements: PubChem BioAssay AID1259407 (Chemical Carcinogenesis Research Information System (CCRIS), 2018)
Activity calls are given as the source filed them. No rule for the calls is given here.

System: CCRIS mutagenicity, Ames/micronucleus/aberration tests
Experiment: CCRIS mutagenicity studies
[1] = Test System: AMES SALMONELLA TYPHIMURIUM, Strain/Indicator: TA98, Metabolic Activation: NONE, Method: STANDARD PLATE
[2] = Test System: AMES SALMONELLA TYPHIMURIUM, Strain/Indicator: TA98, Metabolic Activation: RAT, LIVER, S-9, AROCLOR 1254, Method: STANDARD PLATE
[3] = Test System: AMES SALMONELLA TYPHIMURIUM, Strain/Indicator: TA100, Metabolic Activation: NONE, Method: STANDARD PLATE
[4] = Test System: AMES SALMONELLA TYPHIMURIUM, Strain/Indicator: TA100, Metabolic Activation: RAT, LIVER, S-9, AROCLOR 1254, Method: STANDARD PLATE
[5] = Test System: AMES SALMONELLA TYPHIMURIUM, Strain/Indicator: TA1537, Metabolic Activation: NONE, Method: STANDARD PLATE
[6] = Test System: AMES SALMONELLA TYPHIMURIUM, Strain/Indicator: TA1538, Metabolic Activation: NONE, Method: STANDARD PLATE
[7] = Test System: AMES SALMONELLA TYPHIMURIUM, Strain/Indicator: TA1538, Metabolic Activation: RAT, LIVER, S-9, AROCLOR 1254, Method: STANDARD PLATE

Structure (SMILES): Nc1ccc(Oc2ccc(Cl)cc2Cl)cc1
- mutagenic call (Test System: AMES SALMONELLA TYPHIMURIUM, Strain/Indicator: TA98, Metabolic Activation: S-9, Method: STANDARD PLATE): active; positive
- mutagenic call (Test System: AMES SALMONELLA TYPHIMURIUM, Strain/Indicator: TA100, Metabolic Activation: S-9, Method: STANDARD PLATE): active; positive
- mutagenic call (Test System: AMES SALMONELLA TYPHIMURIUM, Strain/Indicator: YG1021, Metabolic Activation: S-9, Method: STANDARD PLATE): active; positive
- mutagenic call (Test System: AMES SALMONELLA TYPHIMURIUM, Strain/Indicator: YG1024, Metabolic Activation: S-9, Method: STANDARD PLATE): active; positive
- mutagenic call (Test System: AMES SALMONELLA TYPHIMURIUM, Strain/Indicator: YG1026, Metabolic Activation: S-9, Method: STANDARD PLATE): active; positive
- mutagenic call (Test System: AMES SALMONELLA TYPHIMURIUM, Strain/Indicator: YG1029, Metabolic Activation: S-9, Method: STANDARD PLATE): active; positive

Structure (SMILES): CCCCC(CC)COC(=O)c1ccc(N(C)C)c([N+](=O)[O-])c1 (stereo not drawn)
- mutagenic call (Test System: AMES SALMONELLA TYPHIMURIUM, Strain/Indicator: TA98, Metabolic Activation: HAMSTER, LIVER, S-9, AROCLOR 1254 (10%), Method: STANDARD PLATE): active; positive
- mutagenic call (Test System: AMES SALMONELLA TYPHIMURIUM, Strain/Indicator: TA98, Metabolic Activation: HAMSTER, LIVER, S-9, AROCLOR 1254, Method: STANDARD PLATE): active; positive
- mutagenic call [1]: active; positive
- mutagenic call (Test System: AMES SALMONELLA TYPHIMURIUM, Strain/Indicator: TA98, Metabolic Activation: RAT, LIVER, S-9, AROCLOR 1254 (10%), Method: STANDARD PLATE): active; positive
- mutagenic call [2]: active; positive
- mutagenic call (Test System: AMES SALMONELLA TYPHIMURIUM, Strain/Indicator: TA100, Metabolic Activation: HAMSTER, LIVER, S-9, AROCLOR 1254 (10%), Method: STANDARD PLATE): inactive; negative
- mutagenic call (Test System: AMES SALMONELLA TYPHIMURIUM, Strain/Indicator: TA100, Metabolic Activation: HAMSTER, LIVER, S-9, AROCLOR 1254, Method: STANDARD PLATE): inactive; negative
- mutagenic call [3]: inactive; negative
- mutagenic call (Test System: AMES SALMONELLA TYPHIMURIUM, Strain/Indicator: TA100, Metabolic Activation: RAT, LIVER, S-9, AROCLOR 1254 (10%), Method: STANDARD PLATE): inactive; negative
- mutagenic call [4]: inactive; negative
- mutagenic call (Test System: AMES SALMONELLA TYPHIMURIUM, Strain/Indicator: TA1535, Metabolic Activation: HAMSTER, LIVER, S-9, AROCLOR 1254 (10%), Method: STANDARD PLATE): inactive; negative
- mutagenic call (Test System: AMES SALMONELLA TYPHIMURIUM, Strain/Indicator: TA1535, Metabolic Activation: HAMSTER, LIVER, S-9, AROCLOR 1254, Method: STANDARD PLATE): inactive; negative
- mutagenic call (Test System: AMES SALMONELLA TYPHIMURIUM, Strain/Indicator: TA1535, Metabolic Activation: NONE, Method: STANDARD PLATE): inactive; negative
- mutagenic call (Test System: AMES SALMONELLA TYPHIMURIUM, Strain/Indicator: TA1535, Metabolic Activation: RAT, LIVER, S-9, AROCLOR 1254 (10%), Method: STANDARD PLATE): inactive; negative
- mutagenic call (Test System: AMES SALMONELLA TYPHIMURIUM, Strain/Indicator: TA1535, Metabolic Activation: RAT, LIVER, S-9, AROCLOR 1254, Method: STANDARD PLATE): inactive; negative
- mutagenic call (Test System: AMES SALMONELLA TYPHIMURIUM, Strain/Indicator: TA1537, Metabolic Activation: HAMSTER, LIVER, S-9, AROCLOR 1254 (10%), Method: STANDARD PLATE): active; positive
- mutagenic call (Test System: AMES SALMONELLA TYPHIMURIUM, Strain/Indicator: TA1537, Metabolic Activation: HAMSTER, LIVER, S-9, AROCLOR 1254, Method: STANDARD PLATE): active; positive
- mutagenic call [5]: active; positive
- mutagenic call (Test System: AMES SALMONELLA TYPHIMURIUM, Strain/Indicator: TA1537, Metabolic Activation: RAT, LIVER, S-9, AROCLOR 1254 (10%), Method: STANDARD PLATE): active; positive
- mutagenic call (Test System: AMES SALMONELLA TYPHIMURIUM, Strain/Indicator: TA1537, Metabolic Activation: RAT, LIVER, S-9, AROCLOR 1254, Method: STANDARD PLATE): active; positive
- mutagenic call (Test System: AMES SALMONELLA TYPHIMURIUM, Strain/Indicator: TA1538, Metabolic Activation: HAMSTER, LIVER, S-9, AROCLOR 1254 (10%), Method: STANDARD PLATE): active; positive
- mutagenic call (Test System: AMES SALMONELLA TYPHIMURIUM, Strain/Indicator: TA1538, Metabolic Activation: HAMSTER, LIVER, S-9, AROCLOR 1254, Method: STANDARD PLATE): active; positive
- mutagenic call [6]: active; positive
- mutagenic call (Test System: AMES SALMONELLA TYPHIMURIUM, Strain/Indicator: TA1538, Metabolic Activation: RAT, LIVER, S-9, AROCLOR 1254 (10%), Method: STANDARD PLATE): active; positive
- mutagenic call [7]: active; positive

Structure (SMILES): O=CN(O)c1ccc([N+](=O)[O-])cc1
- mutagenic call (Test System: AMES SALMONELLA TYPHIMURIUM, Strain/Indicator: TA98(NR), Metabolic Activation: NONE, Method: STANDARD PLATE): active; positive
- mutagenic call (Test System: AMES SALMONELLA TYPHIMURIUM, Strain/Indicator: TA98(NR), Metabolic Activation: RAT, LIVER, S-9, AROCLOR 1254, Method: STANDARD PLATE): active; positive
- mutagenic call [1]: active; positive
- mutagenic call [2]: active; positive
- mutagenic call (Test System: AMES SALMONELLA TYPHIMURIUM, Strain/Indicator: TA1538(NR), Metabolic Activation: NONE, Method: STANDARD PLATE): active; positive
- mutagenic call (Test System: AMES SALMONELLA TYPHIMURIUM, Strain/Indicator: TA1538(NR), Metabolic Activation: RAT, LIVER, S-9, AROCLOR 1254, Method: STANDARD PLATE): active; positive
- mutagenic call [6]: active; positive
- mutagenic call [7]: active; positive

Structure (SMILES): CN(C)CCNC(=O)c1cccc2c1Nc1ccccc1O2
- mutagenic call [5]: active; positive

Structure (SMILES): COC(=O)C1=C(C)NC(C)=C(C(=O)OCCc2ccc(N3CCN(C(c4ccccc4)c4ccccc4)CC3)cc2)C1c1cccc([N+](=O)[O-])c1 (stereo not drawn)
- mutagenic call (Test System: AMES SALMONELLA TYPHIMURIUM, Strain/Indicator: TA98, Metabolic Activation: NONE, Method: PREINCUBATION): inactive; negative
- mutagenic call (Test System: AMES SALMONELLA TYPHIMURIUM, Strain/Indicator: TA98, Metabolic Activation: RAT, LIVER, S-9, PHENOBARBITAL AND 5,6-BENZOFLAVONE, Method: PREINCUBATION): inactive; negative
- mutagenic call (Test System: AMES SALMONELLA TYPHIMURIUM, Strain/Indicator: TA100, Metabolic Activation: NONE, Method: PREINCUBATION): inactive; negative
- mutagenic call (Test System: AMES SALMONELLA TYPHIMURIUM, Strain/Indicator: TA100, Metabolic Activation: RAT, LIVER, S-9, PHENOBARBITAL AND 5,6-BENZOFLAVONE, Method: PREINCUBATION): inactive; negative
- mutagenic call (Test System: AMES SALMONELLA TYPHIMURIUM, Strain/Indicator: TA1535, Metabolic Activation: NONE, Method: PREINCUBATION): inactive; negative
- mutagenic call (Test System: AMES SALMONELLA TYPHIMURIUM, Strain/Indicator: TA1535, Metabolic Activation: RAT, LIVER, S-9, PHENOBARBITAL AND 5,6-BENZOFLAVONE, Method: PREINCUBATION): inactive; negative
- mutagenic call (Test System: AMES SALMONELLA TYPHIMURIUM, Strain/Indicator: TA1537, Metabolic Activation: NONE, Method: PREINCUBATION): inactive; negative
- mutagenic call (Test System: AMES SALMONELLA TYPHIMURIUM, Strain/Indicator: TA1537, Metabolic Activation: RAT, LIVER, S-9, PHENOBARBITAL AND 5,6-BENZOFLAVONE, Method: PREINCUBATION): inactive; negative
- mutagenic call (Test System: E. COLI, Strain/Indicator: WP2 UVRA, Metabolic Activation: NONE, Method: PREINCUBATION): inactive; negative
- mutagenic call (Test System: E. COLI, Strain/Indicator: WP2 UVRA, Metabolic Activation: RAT, LIVER, S-9, PHENOBARBITAL AND 5,6-BENZOFLAVONE, Method: PREINCUBATION): inactive; negative

Structure (SMILES): Cc1cc2c(c3ccc4ccccc4c13)CCC2
- mutagenic call [3]: inactive; negative
- mutagenic call [4]: inactive; negative

Structure (SMILES): Nc1c2cc([N+](=O)[O-])ccc2nc2ccc([N+](=O)[O-])cc12
- mutagenic call (Test System: AMES SALMONELLA TYPHIMURIUM, Strain/Indicator: TA1537, Metabolic Activation: NONE): active; positive
